This note sets out measurements from ChEMBL document CHEMBL1201862, “PubChem BioAssay data set” (2004).

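1) Cells in 96-well plates. 2) Compound, 48 h, 5 concentrations. 3) Linear interpolation between surrounding doses. 4) Unreached endpoint = highest concentration. GI50 is the concentration that inhibits growth by half.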 Active and inactive are the calls of the source. Cut-off read from the data, not from the text of the source: active = GI50 up to about 1.1 µM and inactive = higher. Bounds are passed on as bounds.

Some test systems named below: DMS-114; M19-MEL; LXFL 529; XF498; DLD-1; RXF 631; DMS-273; HOP-18.
Common to all, as to experiment: DTP human tumour cell line panel, 48 h

Usually GI50 stands for the concentration at which growth is held to half of that of the control. With `O=C1CCC2(c3ccccc3)Nc3cc(Cl)ccc3N12` (stereo not drawn), the GI50 in the assay with DMS-114 is 21.4 µM (inactive); in the assay with M19-MEL, 30.8 µM (inactive); in the assay with LXFL 529 it was 31.4 µM (inactive); with XF498, 19.7 µM (inactive); in the assay on DLD-1, 34.9 µM (inactive); with RXF 631 it was 47.5 µM (inactive).
In the case of `COc1ccc(/C=C2\CNC/C(=C\c3ccc(OC)cc3)C2=O)cc1`, the GI50 was 45.8 µM (inactive) in the assay on DMS-114; > 100 µM (inactive) in the assay with M19-MEL; 21.8 µM (inactive) in the assay on LXFL 529; 63.2 µM (inactive) with XF498; 23.2 µM (inactive) in the assay with DMS-273; 21 µM (inactive) with DLD-1. The GI50 in the assay with HOP-18 was > 100 µM (inactive).
As to `ON/N=C/c1cc2c(cc1Br)OCO2`, the GI50 is 251 µM (inactive) in the assay on DMS-114; > 386 µM (inactive) with M19-MEL; > 386 µM (inactive) in the assay with LXFL 529; > 386 µM (inactive) in the assay with DMS-273; > 386 µM (inactive) in the assay with DLD-1; > 386 µM (inactive) in the assay on HOP-18. Besides, the GI50 in the assay with RXF 631 was > 386 µM (inactive).
With `O=[N+]([O-])c1cc(/C=N\NS(=O)(=O)c2ccc(Cl)cc2)c(O)c([N+](=O)[O-])c1`, the GI50 in the assay on DMS-114 is 31.9 µM (inactive); with M19-MEL, 48.3 µM (inactive); with LXFL 529, 30.6 µM (inactive); in the assay on DMS-273, 26.5 µM (inactive); with DLD-1 it was 72.8 µM (inactive); in the assay with HOP-18, 42.3 µM (inactive). The GI50 in the assay with RXF 631 is 28.6 µM (inactive).
For `CC(C)(C)C1CCC2c3c([nH]c4ccccc34)C3C(=O)N(c4ccccc4)C(=O)C3C2C1` (stereo not drawn), the GI50 in the assay on DMS-114 is 6.15 µM (inactive); in the assay with M19-MEL, 7.66 µM (inactive); in the assay with LXFL 529, 11.3 µM (inactive); in the assay with XF498, 0.389 µM (active); with DMS-273, 3.34 µM (inactive); in the assay with DLD-1, 20.4 µM (inactive). In addition, in the assay on HOP-18, the GI50 was 4.76 µM (inactive).
On to `COc1cc2c(cc1OC)C1(c3ccc(Cl)cc3)ON=C(c3ccccc3)N1CS2` (stereo not drawn), for which the GI50 in the assay with DMS-114, in the assay on M19-MEL, in the assay with LXFL 529, in the assay on DMS-273, with DLD-1 and in the assay on HOP-18 was > 100 µM (inactive) each time. Besides, the GI50 with RXF 631 was > 100 µM (inactive).
`C/C(CC(=O)Nc1cccc(Cl)c1C)=N\N=C(N)N`: the GI50 was > 100 µM (inactive) with DMS-114; > 100 µM (inactive) with M19-MEL; > 100 µM (inactive) in the assay on LXFL 529; > 100 µM (inactive) in the assay with XF498; 97.1 µM (inactive) in the assay with DMS-273; > 100 µM (inactive) in the assay on DLD-1. Besides, the GI50 in the assay with HOP-18 is > 100 µM (inactive).
In the case of `Cc1nnc(N/N=C2\C(=O)Nc3ccccc32)n1N`, the GI50 in the assay with DMS-114, with M19-MEL, in the assay with LXFL 529, in the assay with XF498, in the assay on DMS-273 and in the assay on DLD-1 was > 100 µM (inactive) in each case. Further, the GI50 in the assay on HOP-18 and with RXF 631 was > 100 µM (inactive) in each case.
Regarding `CN(C(=O)C12C3C4C1C1C2C3C41C#N)C(C)(C)C` (stereo not drawn), the GI50 in the assay on DMS-114, in the assay with M19-MEL, with LXFL 529, with DMS-273, in the assay with DLD-1 and with RXF 631 was > 100 µM (inactive) throughout.
Take `Cc1cc(Br)cc(C)c1NC(=O)C(=O)C(C(=O)c1ccc(Cl)c(Cl)c1)C1OC(=O)c2ccccc21` (stereo not drawn): the GI50 in the assay on DMS-114 was 24.3 µM (inactive); with M19-MEL it was 75.2 µM (inactive); with LXFL 529, 59.3 µM (inactive); in the assay with DMS-273 it was 63.2 µM (inactive); with DLD-1 it was 12.4 µM (inactive); in the assay with RXF 631 it was 29.6 µM (inactive).
